Biological target: MAP kinase-activated protein kinase 2 (Homo sapiens, UniProt P49137)
Assay: Inhibition of MK2 in human TERT immortalised HCA2 cells assessed as inhibition of anisomycin-induced HSP27 phosphorylation at 2.5 uM by ELISA

MAP kinase-activated protein kinase 2, sequence (P49137 whole entry): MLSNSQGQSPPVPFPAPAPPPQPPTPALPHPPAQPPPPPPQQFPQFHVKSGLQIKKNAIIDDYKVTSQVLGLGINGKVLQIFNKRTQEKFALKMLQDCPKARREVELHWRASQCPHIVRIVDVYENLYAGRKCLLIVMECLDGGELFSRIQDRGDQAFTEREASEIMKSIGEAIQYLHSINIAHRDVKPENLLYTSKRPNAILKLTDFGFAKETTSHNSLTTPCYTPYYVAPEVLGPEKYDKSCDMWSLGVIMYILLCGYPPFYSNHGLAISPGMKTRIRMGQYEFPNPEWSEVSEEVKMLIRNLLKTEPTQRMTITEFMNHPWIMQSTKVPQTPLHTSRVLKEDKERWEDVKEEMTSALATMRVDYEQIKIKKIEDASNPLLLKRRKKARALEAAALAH

O=C(CCCc1ccc(-c2ccccc2F)cc1)Nc1ccc(O)cc1
Ki: 330 nM

From BindingDB's records for doi:10.1016/j.bmcl.2007.10.036 (Cardiff University, 2007)
